The values below come from patent US20020123514A1, “Treatment of diabetes with thiazolidinedione and alpha-glucosidase inhibitor” (SmithKline Beecham plc, priority 1997, published 2002).

In general, AUC(0-inf) refers to total exposure, with the tail of the curve extrapolated. As a reminder, the Cmax is the maximum level reached in the sampled fluid or tissue. What is called Tmax is the time from dosing to the highest level.

The nature of the series: Pharmacokinetic interaction study: single oral dose of Compound (I) alone and coadministered with acarbose. Type of series: in vivo, healthy volunteers. Here is the method:
This study investigated whether administration of acarbose (A) alters the PK of co-administered Compound (I). Sixteen healthy volunteers (24-59 yo) received a single oral dose of Compound (I) (8 mg) on Day 1, followed by 7 days of repeat dosing with A (100 mg tid with meals). On Day 8, a single oral dose of Compound (I) was coadministered with the morning dose of A. PK profiles following Compound (I) dosing on Days 1 and 8 were compared. […] PK data and point estimates [95% confidence intervals] for Compound (I)+A: Compound (I) alone were analyzed.

The mark [1] stands for this setting: human, in vivo, Compound (I) alone, single oral dose 8 mg, Day 1, healthy volunteers.

On to `C[C@H]1O[C@H](O[C@H]2[C@H](O)[C@@H](O)[C@@H](O[C@H]3[C@H](O)[C@@H](O)C(O)O[C@@H]3CO)O[C@@H]2CO)[C@H](O)[C@@H](O)[C@@H]1N[C@H]1C=C(CO)[C@@H](O)[C@H](O)[C@H]1O` (some centres unmarked) [acarbose, reference compound], for which, where the note is “acarbose 100 mg tid coadministered, changes small, not likely clinically relevant”, the “effect on Compound (I) clearance” value is “slightly increase”.

Consider `CN(CCOc1ccc(CC2SC(=O)NC2=O)cc1)c1ccccn1` (centres unmarked) [Compound (I), 5-[4-[2-(N-methyl-N-(2-pyridyl)amino)ethoxy]benzyl]thiazolidine-2,4-dione], for which, under setting [1], the area under the curve AUC(0-inf) amounted to 2790 ng·h/mL and the peak concentration (Cmax) was 428 ng/mL. Besides, the half-life (human, in vivo, Compound (I) alone, single oral dose 8 mg, Day 1, healthy volunteers, read-out: T½ (converted)) was 4.93 h. For the same compound, for the setting “human, in vivo, Compound (I) alone, single oral dose 8 mg, Day 1, median (range)”, the time to peak (Tmax) was 1.48 h.
